From ChEMBL document CHEMBL4017477, “Synthesis and evaluation of 4,6-disubstituted pyrimidines as CNS penetrant pan-muscarinic antagonists with a novel chemotype” (Bioorg Med Chem Lett, 2017)

Tests used:
[1] = biological target: T1, Muscarinic acetylcholine receptor M4 (Homo sapiens, UniProt P08173); assay: Antagonist activity at recombinant human M4 receptor expressed in CHO cells co-expressing Gqi5 by calcium mobilization assay; format: functional, cell-based
T1 sequence (P08173 whole entry): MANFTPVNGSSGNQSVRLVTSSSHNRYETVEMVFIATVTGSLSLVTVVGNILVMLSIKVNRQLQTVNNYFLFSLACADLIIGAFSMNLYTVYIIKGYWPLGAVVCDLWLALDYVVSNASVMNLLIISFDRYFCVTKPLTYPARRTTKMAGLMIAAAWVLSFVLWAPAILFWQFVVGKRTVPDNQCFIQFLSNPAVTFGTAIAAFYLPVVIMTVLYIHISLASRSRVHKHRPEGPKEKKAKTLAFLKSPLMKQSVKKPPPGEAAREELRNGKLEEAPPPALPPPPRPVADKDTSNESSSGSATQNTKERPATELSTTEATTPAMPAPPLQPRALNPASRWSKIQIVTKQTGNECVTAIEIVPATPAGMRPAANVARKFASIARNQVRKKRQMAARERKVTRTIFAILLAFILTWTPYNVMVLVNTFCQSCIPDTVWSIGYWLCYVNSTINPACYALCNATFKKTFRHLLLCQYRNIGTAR

[2] = biological target: T2, Muscarinic acetylcholine receptor M4 (Homo sapiens) (UniProt P08173); assay: Antagonist activity at recombinant human M4 receptor expressed in CHO cells co-expressing Gqi5 by calcium mobilization assay relative to acetylcholine; format: functional, cell-based
T2 sequence (whole entry): T1 sequence (P08173 whole entry)

[3] = biological target: T3, Muscarinic acetylcholine receptor M5 (Homo sapiens, UniProt P08912); assay: Antagonist activity at recombinant human M5 receptor expressed in CHO cells co-expressing Gqi5 by calcium mobilization assay; format: functional, cell-based
T3 sequence (P08912 whole entry): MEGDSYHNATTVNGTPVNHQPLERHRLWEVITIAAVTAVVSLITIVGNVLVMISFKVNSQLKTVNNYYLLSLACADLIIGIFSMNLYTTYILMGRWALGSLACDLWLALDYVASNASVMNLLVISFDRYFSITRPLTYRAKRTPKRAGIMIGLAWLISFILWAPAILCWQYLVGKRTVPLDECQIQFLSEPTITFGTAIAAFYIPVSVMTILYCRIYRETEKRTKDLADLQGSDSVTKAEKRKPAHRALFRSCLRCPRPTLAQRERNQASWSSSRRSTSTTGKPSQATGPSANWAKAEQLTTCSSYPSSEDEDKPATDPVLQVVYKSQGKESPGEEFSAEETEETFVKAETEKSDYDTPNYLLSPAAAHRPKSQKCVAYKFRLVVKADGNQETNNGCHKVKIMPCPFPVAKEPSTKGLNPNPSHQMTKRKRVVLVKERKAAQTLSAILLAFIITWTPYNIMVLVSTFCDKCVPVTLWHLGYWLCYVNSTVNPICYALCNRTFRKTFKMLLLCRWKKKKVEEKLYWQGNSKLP

[4] = biological target: T4, Muscarinic acetylcholine receptor M1 (Homo sapiens, UniProt P11229); assay: Antagonist activity at recombinant human M1 receptor expressed in CHO cells co-expressing Gqi5 by calcium mobilization assay; format: functional, cell-based
T4 sequence (P11229 whole entry): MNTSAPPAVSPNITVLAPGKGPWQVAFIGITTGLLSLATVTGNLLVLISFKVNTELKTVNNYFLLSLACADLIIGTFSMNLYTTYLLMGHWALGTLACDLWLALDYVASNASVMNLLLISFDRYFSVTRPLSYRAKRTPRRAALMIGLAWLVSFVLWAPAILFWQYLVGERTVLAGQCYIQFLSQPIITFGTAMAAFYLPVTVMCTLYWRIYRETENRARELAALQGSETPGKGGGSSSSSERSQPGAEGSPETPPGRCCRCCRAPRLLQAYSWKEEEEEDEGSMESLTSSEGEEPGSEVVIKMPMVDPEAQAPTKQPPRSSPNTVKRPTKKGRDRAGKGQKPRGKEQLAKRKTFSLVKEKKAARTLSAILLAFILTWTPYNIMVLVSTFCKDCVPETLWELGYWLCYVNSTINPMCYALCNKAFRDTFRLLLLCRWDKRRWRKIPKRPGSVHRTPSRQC

[5] = biological target: T5, Muscarinic acetylcholine receptor M2 (Homo sapiens, UniProt P08172); assay: Antagonist activity at recombinant human M2 receptor expressed in CHO cells co-expressing Gqi5 by calcium mobilization assay; format: functional, cell-based
T5 sequence (P08172 whole entry): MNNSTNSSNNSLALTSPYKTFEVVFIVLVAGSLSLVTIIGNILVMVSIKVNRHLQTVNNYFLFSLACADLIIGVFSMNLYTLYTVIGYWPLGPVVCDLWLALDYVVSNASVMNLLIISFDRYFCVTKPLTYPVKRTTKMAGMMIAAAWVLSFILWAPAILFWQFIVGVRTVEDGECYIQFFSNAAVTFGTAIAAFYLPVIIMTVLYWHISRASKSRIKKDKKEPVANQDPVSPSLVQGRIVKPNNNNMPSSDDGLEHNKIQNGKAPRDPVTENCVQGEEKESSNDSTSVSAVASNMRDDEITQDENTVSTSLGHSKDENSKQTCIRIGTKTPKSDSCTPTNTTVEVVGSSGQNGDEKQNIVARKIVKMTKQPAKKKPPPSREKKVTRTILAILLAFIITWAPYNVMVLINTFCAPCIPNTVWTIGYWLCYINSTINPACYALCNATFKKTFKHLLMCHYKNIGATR

[6] = biological target: T6, Muscarinic acetylcholine receptor M3 (Homo sapiens, UniProt P20309); assay: Antagonist activity at recombinant human M3 receptor expressed in CHO cells co-expressing Gqi5 by calcium mobilization assay; format: functional, cell-based
Target sequence in this assay (P20309 whole entry): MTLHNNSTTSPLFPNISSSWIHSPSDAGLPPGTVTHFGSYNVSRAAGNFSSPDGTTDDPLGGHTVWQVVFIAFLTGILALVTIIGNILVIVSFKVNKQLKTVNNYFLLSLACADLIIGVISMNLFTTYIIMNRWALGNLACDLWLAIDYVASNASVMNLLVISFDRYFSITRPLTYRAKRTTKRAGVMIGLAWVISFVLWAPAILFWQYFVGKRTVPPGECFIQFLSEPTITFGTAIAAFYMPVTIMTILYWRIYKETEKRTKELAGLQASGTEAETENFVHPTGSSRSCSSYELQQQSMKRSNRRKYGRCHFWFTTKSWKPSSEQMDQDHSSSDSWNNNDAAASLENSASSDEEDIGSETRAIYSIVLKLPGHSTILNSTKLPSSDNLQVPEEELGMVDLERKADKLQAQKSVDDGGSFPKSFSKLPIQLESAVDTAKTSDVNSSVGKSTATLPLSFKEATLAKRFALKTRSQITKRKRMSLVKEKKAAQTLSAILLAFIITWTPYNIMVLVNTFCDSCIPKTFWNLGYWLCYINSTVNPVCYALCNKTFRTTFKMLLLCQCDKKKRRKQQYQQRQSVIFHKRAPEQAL

[7] = biological target: T7, Muscarinic acetylcholine receptor M1 (Homo sapiens) (UniProt P11229); assay: Antagonist activity at recombinant human M1 receptor expressed in CHO cells co-expressing Gqi5 by calcium mobilization assay relative to acetylcholine; format: functional, cell-based
T7 sequence (whole entry): T4 sequence (P11229 whole entry)

[8] = biological target: T8, Muscarinic acetylcholine receptor M2 (Homo sapiens) (UniProt P08172); assay: Antagonist activity at recombinant human M2 receptor expressed in CHO cells co-expressing Gqi5 by calcium mobilization assay relative to acetylcholine; format: functional, cell-based
T8 sequence (whole entry): T5 sequence (P08172 whole entry)

[9] = biological target: T6, Muscarinic acetylcholine receptor M3; assay: Antagonist activity at recombinant human M3 receptor expressed in CHO cells co-expressing Gqi5 by calcium mobilization assay relative to acetylcholine; format: functional, cell-based
Target sequence in this assay (P20309 whole entry, looked up): as the sequence (P20309 whole entry) above

[10] = biological target: T9, Muscarinic acetylcholine receptor M5 (Homo sapiens) (UniProt P08912); assay: Antagonist activity at recombinant human M5 receptor expressed in CHO cells co-expressing Gqi5 by calcium mobilization assay relative to acetylcholine; format: functional, cell-based
T9 sequence (whole entry): T3 sequence (P08912 whole entry)

[11] = Brain to plasma partition coefficient, Kp of the compound in rat; format: ADME
[12] = Ratio of unbound brain to plasma concentration in rat; format: ADME
[13] = tested on: Plasma; assay: Unbound plasma concentration in rat; format: ADME, cell-free
[14] = tested on: Brain; assay: Unbound brain concentration in rat; format: ADME, tissue-based; conditions: in vivo
[15] = biological target: T10, Muscarinic acetylcholine receptor M4 (Rattus norvegicus, UniProt P08485); assay: Antagonist activity at rat M4 receptor by calcium mobilization assay; format: functional
T10 sequence (P08485 whole entry): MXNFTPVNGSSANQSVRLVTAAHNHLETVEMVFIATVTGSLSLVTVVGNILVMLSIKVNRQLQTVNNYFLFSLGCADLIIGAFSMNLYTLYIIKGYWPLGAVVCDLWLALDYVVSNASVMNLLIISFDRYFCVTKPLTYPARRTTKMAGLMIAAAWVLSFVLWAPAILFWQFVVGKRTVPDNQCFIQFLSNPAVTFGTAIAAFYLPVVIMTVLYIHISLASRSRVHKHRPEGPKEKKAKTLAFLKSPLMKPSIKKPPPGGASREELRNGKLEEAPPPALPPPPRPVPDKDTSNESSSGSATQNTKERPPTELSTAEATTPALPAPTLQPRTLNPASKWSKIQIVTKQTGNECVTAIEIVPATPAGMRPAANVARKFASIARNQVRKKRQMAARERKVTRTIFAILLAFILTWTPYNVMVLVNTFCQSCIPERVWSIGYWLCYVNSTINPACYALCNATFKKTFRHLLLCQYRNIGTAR

[16] = biological target: T11, Muscarinic acetylcholine receptor M4 (Rattus norvegicus) (UniProt P08485); assay: Antagonist activity at rat M4 receptor by calcium mobilization assay relative to acetylcholine; format: functional
T11 sequence (whole entry): T10 sequence (P08485 whole entry)

[17] = tested on: Plasma; assay: Unbound plasma concentration in human; format: ADME, cell-free

SMILES | IC50 ([1]; read-out: IC50) [nM] | Emin [2] [%] | IC50 ([1]; read-out: pIC50 (converted)) [nM] | further results
O=C(C1CCN(c2cc(Oc3ccc4c(c3)OCO4)ncn2)CC1)N1CCc2ccccc2C1 | 510 | 4.1 |  | 
O=C(C1CCN(c2cc(Oc3ccc(F)cc3F)ncn2)CC1)N1CCc2cc(C(F)(F)F)ccc2C1 | > 10000 |  |  | 
O=C(C1CCN(c2cc(Oc3ccccc3)ncn2)CC1)N1CCc2ccccc2C1 | 650 | 2.7 | 617 | 
O=C(C1CCN(c2cc(Oc3c(F)cccc3F)ncn2)CC1)N1CCc2ccccc2C1 |  | 7 |  | 
O=C(C1CCN(c2cc(Oc3ccc(F)cc3F)ncn2)CC1)N1CCC2CCCCC2C1 (configuration not stated) | 410 | 5.1 |  | 
O=C(C1CCN(c2cc(Oc3ccc(Cl)cc3)ncn2)CC1)N1CCc2ccccc2C1 | 140 | 3 | 132 | IC50 [3]: 695 nM; IC50 [4]: 313 nM; IC50 [5]: 352 nM; IC50 [6]: 365 nM; Emin [7]: < 6%; Emin [8]: < 6%; Emin [9]: < 6%; Emin [10]: < 6%
O=C(C1CCN(c2cc(Oc3ccc(Cl)cc3Cl)ncn2)CC1)N1CCc2ccccc2C1 | 270 | 3 |  | 
O=C(C1CCN(c2cc(Oc3cccc(F)c3F)ncn2)CC1)N1CCc2ccccc2C1 | 190 | 3.1 | 170 | 
O=C(C1CCN(c2cc(Oc3cc(F)ccc3F)ncn2)CC1)N1CCc2ccccc2C1 | 80 | 3.1 |  | 
O=C(C1CCN(c2cc(Oc3ccccc3F)ncn2)CC1)N1CCc2ccccc2C1 | 130 | 3.2 | 123 | IC50 [3]: 732 nM; Kp ([11]; brain/plasma, read-out: Kp): 0.68; IC50 [4]: 322 nM; IC50 [5]: 384 nM; IC50 [6]: 404 nM; Kp uu ([12]; brain/plasma, read-out: K(p,uu,brain)): 0.75; Emin [7]: < 6%; Emin [8]: < 6%; Emin [9]: < 6%; Emin [10]: < 6%
COc1ccc2c(c1)CCN(C(=O)C1CCN(c3cc(Oc4ccc(F)cc4F)ncn3)CC1)C2 | 580 | 5.5 | 562 | 
O=C(C1CCN(c2cc(Oc3ccc(F)cc3)ncn2)CC1)N1CCc2ccccc2C1 | 240 | 3.5 | 229 | 
COc1ccc2c(c1)CN(C(=O)C1CCN(c3cc(Oc4ccc(F)cc4F)ncn3)CC1)CC2 | 2470 | 11.8 | 2400 | 
CCc1ccc(Oc2cc(N3CCC(C(=O)N4CCc5ccccc5C4)CC3)ncn2)cc1 | 380 | 5.3 | 347 | IC50 [3]: < 1500 nM; Fu [13]: 0.004; Kp [11]: 1.45; Fu [14]: 0.001; IC50 ([15]; read-out: IC50): 590 nM; IC50 ([15]; read-out: pIC50 (converted)): 562 nM; Emin [16]: 13.1%; IC50 [4]: < 1500 nM; IC50 [5]: < 1500 nM; IC50 [6]: < 1500 nM; Fu [17]: 0.001; K(p,uu,brain) ([12]; brain): 0.36
CN(Cc1ccccc1)C(=O)C1CCN(c2cc(Oc3ccc(F)cc3F)ncn2)CC1 | > 10000 |  |  | 
O=C(C1CCN(c2cc(Oc3ccc4ccccc4c3)ncn2)CC1)N1CCc2ccccc2C1 |  | 6.8 |  | 
O=C(C1CCN(c2cc(Oc3ccc(Cl)cc3F)ncn2)CC1)N1CCc2ccccc2C1 | 150 | 3.1 |  | 
O=C(NCc1ccccc1)C1CCN(c2cc(Oc3ccc(F)cc3F)ncn2)CC1 | > 10000 |  |  | 
COc1ccc(Oc2cc(N3CCC(C(=O)N4CCc5ccccc5C4)CC3)ncn2)cc1 | 460 | 5.3 |  | 
Cc1ccc(Oc2cc(N3CCC(C(=O)N4CCc5ccccc5C4)CC3)ncn2)cc1 | 310 | 3.3 |  | 
O=C(C1CCN(c2cc(Oc3ccc(F)cc3F)ncn2)CC1)N1CCCc2ccccc2C1 | 1040 | 6 |  | 
O=C(C1CCN(c2cc(Oc3cccc(F)c3)ncn2)CC1)N1CCc2ccccc2C1 | 310 | 3.2 |  | 
